Patent US20240208992A1, “MACROCYCLES AS CFTR MODULATORS” (Idorsia Pharmaceuticals Ltd, priority 2021, published 2024)

Target: human F508del-CFTR (Homo sapiens, UniProt P13569, DEL508-508)
Test: F508del-CFTR cell surface expression (corrector activity), DiscoveRx ß-galactosidase complementation chemiluminescence assay in recombinant U2OS cell line;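 note: U2OS cells co-expressing ProLink-tagged F508del-CFTR and a membrane-anchored enzyme acceptor, where more surface CFTR restores β-galactosidase activity measured by chemiluminescence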
Settings: for EC50: EC50, F508del-CFTR cell surface expression; for Emax: U2OS
[1] = U2OS cells, 16h compound incubation, geomean values
[2] = in relation to Emax of corrector lumacaftor (=100%), arithmetic mean values
[3] = U2OS cells, 16h compound incubation, geomean of several measurements
[4] = in relation to the Emax of the corrector lumacaftor (=100%), U2OS cells, 16h compound incubation, arithmetic mean

human F508del-CFTR, sequence (P13569 with tags, fused parts or gaps DEL508-508): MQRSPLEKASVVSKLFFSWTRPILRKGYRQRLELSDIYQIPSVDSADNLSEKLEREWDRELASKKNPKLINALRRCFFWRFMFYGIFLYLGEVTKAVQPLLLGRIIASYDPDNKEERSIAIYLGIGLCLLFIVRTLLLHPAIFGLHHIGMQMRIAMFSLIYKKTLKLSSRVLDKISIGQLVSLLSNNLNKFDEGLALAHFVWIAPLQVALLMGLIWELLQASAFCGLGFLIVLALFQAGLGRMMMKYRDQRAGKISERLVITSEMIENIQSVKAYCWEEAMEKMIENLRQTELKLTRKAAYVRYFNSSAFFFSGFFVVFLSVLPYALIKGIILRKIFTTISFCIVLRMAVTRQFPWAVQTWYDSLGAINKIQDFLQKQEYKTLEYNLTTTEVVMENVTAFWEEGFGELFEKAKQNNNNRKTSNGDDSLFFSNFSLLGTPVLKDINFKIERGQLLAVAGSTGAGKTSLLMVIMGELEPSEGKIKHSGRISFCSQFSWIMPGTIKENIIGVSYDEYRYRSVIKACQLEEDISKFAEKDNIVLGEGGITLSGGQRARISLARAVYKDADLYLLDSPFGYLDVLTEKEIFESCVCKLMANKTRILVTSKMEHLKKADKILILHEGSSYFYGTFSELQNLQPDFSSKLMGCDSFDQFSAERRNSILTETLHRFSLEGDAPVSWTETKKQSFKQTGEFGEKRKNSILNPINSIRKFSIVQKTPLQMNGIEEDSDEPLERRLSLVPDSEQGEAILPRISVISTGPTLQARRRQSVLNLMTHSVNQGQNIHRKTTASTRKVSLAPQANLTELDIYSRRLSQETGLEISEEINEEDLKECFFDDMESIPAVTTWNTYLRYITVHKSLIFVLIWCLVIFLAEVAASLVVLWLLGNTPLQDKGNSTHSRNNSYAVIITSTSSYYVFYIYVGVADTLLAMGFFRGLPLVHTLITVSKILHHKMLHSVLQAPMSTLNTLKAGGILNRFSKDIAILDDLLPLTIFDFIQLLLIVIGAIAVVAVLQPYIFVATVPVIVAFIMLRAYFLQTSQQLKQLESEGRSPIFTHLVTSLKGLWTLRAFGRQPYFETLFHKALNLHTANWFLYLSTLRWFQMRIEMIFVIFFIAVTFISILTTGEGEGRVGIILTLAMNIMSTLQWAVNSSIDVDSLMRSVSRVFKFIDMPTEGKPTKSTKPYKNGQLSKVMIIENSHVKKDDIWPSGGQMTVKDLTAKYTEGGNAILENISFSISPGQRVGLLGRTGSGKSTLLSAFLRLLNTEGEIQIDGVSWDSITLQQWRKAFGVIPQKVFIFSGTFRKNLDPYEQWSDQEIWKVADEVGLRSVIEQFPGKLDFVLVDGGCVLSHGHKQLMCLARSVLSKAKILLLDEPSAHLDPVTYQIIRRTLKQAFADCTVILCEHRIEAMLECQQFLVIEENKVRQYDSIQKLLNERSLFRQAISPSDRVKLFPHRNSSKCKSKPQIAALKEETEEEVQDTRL

Row | EC50 [1] [nM] | Emax [2] [%] | Structure (SMILES) | EC50 [3] [nM] | Emax [4] [%]
1 | 80 | 345 | COc1cc(CCNC(=O)[C@@H]2CC(=O)N(C)[C@@H](CC(C)C)C(=O)N(C)[C@H](CC(F)(F)F)C(=O)N[C@H](Cc3ccccc3)COc3cc(C)nc(OC)c3C(=O)N2)on1 [Example 791, (3R,6R,9S,13S)-3-benzyl-9-isobutyl-16-methoxy-N-(2-(3-methoxyisoxazol-5-yl)ethyl)-7,10,18-trimethyl-5,8,11,15-tetraoxo-6-(2,2,2-trifluoroethyl)-2,3,4,5,6,7,8,9,10,11,12,13,14,15-tetradecahydropyrido[3,4-p][1]oxa[4,7,10,14]tetraazacycloheptadecine-13-carboxamide] | – | –
2 | 628 | 261 | COc1cc(CCNC(=O)[C@@H]2CC(=O)N(C)[C@@H](CC(C)C)C(=O)N(C)[C@@H](CC(F)(F)F)C(=O)N[C@H](Cc3ccccc3)COc3cc(C)nc(OC)c3C(=O)N2)on1 [Example 792, (3R,6S,9S,13S)-3-benzyl-9-isobutyl-16-methoxy-N-(2-(3-methoxyisoxazol-5-yl)ethyl)-7,10,18-trimethyl-5,8,11,15-tetraoxo-6-(2,2,2-trifluoroethyl)-2,3,4,5,6,7,8,9,10,11,12,13,14,15-tetradecahydropyrido[3,4-p][1]oxa[4,7,10,14]tetraazacycloheptadecine-13-carboxamide] | – | –
3 | 141 | 384 | COc1cc(CCNC(=O)[C@@H]2CC(=O)N(C)[C@@H](CC(C)C)C(=O)N(C)[C@H](Cc3nc(-c4ccc(F)cn4)no3)C(=O)N[C@H](Cc3ccccc3)COc3ccc4ncc(F)cc4c3C(=O)N2)on1 [Example 795, (3S,7S,10R,13R)-13-benzyl-20-fluoro-10-((3-(5-fluoropyridin-2-yl)-1,2,4-oxadiazol-5-yl)methyl)-7-isobutyl-N-(2-(3-methoxyisoxazol-5-yl)ethyl)-6,9-dimethyl-1,5,8,11-tetraoxo-1,2,3,4,5,6,7,8,9,10,11,12,13,14-tetradecahydro-[1]oxa[4,7,10,14]tetraazacycloheptadecino[16,17-f]quinoline-3-carboxamide] | – | –
4 | 156 | 321 | COc1cc(CCNC(=O)[C@@H]2CC(=O)N(C)[C@@H](CC(C)C)C(=O)N3CCCC[C@@H]3C(=O)N[C@H](Cc3ccccc3)COc3ccc4cnc(C)cc4c3C(=O)N2)on1 [Example 796, (9S,13S,19aR,22R)-22-benzyl-13-isobutyl-N-(2-(3-methoxyisoxazol-5-yl)ethyl)-5,12-dimethyl-7,11,14,20-tetraoxo-7,8,9,10,11,12,13,14,17,18,19,19a,20,21,22,23-hexadecahydro-16H-pyrido[2′,1′:6,7][1]oxa[4,7,10,14]tetraazacycloheptadecino[16,17-f]isoquinoline-9-carboxamide] | – | –
5 | 399 | 308 | CC(C)C[C@H]1C(=O)N(C)[C@H](C)C(=O)N[C@H](Cc2ccccc2)COc2ccc3ncc(F)cc3c2C(=O)N[C@H](C(=O)NCCc2cc(C3CC3)no2)CC(=O)N1C [Example 797, (3S,7S,10R,13R)-13-benzyl-N-(2-(3-cyclopropylisoxazol-5-yl)ethyl)-20-fluoro-7-isobutyl-6,9,10-trimethyl-1,5,8,11-tetraoxo-1,2,3,4,5,6,7,8,9,10,11,12,13,14-tetradecahydro-[1]oxa[4,7,10,14]tetraazacycloheptadecino[16,17-f]quinoline-3-carboxamide] | – | –
6 | – | – | CC(C)C[C@H]1C(=O)N(C)[C@H](C)C(=O)N[C@H](Cc2ccccc2)COc2ccc3ncc(F)cc3c2C(=O)N[C@H](C(=O)NCCc2cc(C3CC3)on2)CC(=O)N1C [Example 798, (3S,7S,10R,13R)-13-benzyl-N-(2-(5-cyclopropylisoxazol-3-yl)ethyl)-20-fluoro-7-isobutyl-6,9,10-trimethyl-1,5,8,11-tetraoxo-1,2,3,4,5,6,7,8,9,10,11,12,13,14-tetradecahydro-[1]oxa[4,7,10,14]tetraazacycloheptadecino[16,17-f]quinoline-3-carboxamide] | 197 | 324
7 | – | – | CC(C)C[C@H]1C(=O)N(C)[C@H](C)C(=O)N[C@H](Cc2ccccc2)COc2ccc3ncc(F)cc3c2C(=O)N[C@H](C(=O)NCCc2noc(C3CC3)n2)CC(=O)N1C [Example 799, (3S,7S,10R,13R)-13-benzyl-N-(2-(5-cyclopropyl-1,2,4-oxadiazol-3-yl)ethyl)-20-fluoro-7-isobutyl-6,9,10-trimethyl-1,5,8,11-tetraoxo-1,2,3,4,5,6,7,8,9,10,11,12,13,14-tetradecahydro-[1]oxa[4,7,10,14]tetraazacycloheptadecino[16,17-f]quinoline-3-carboxamide] | 258 | 335
8 | – | – | CC(C)C[C@H]1C(=O)N(C)[C@H](C)C(=O)N[C@H](Cc2ccccc2)COc2ccc3ncc(F)cc3c2C(=O)N[C@H](C(=O)NCCc2nc(C3CC3)no2)CC(=O)N1C [Example 800, (3S,7S,10R,13R)-13-benzyl-N-(2-(3-cyclopropyl-1,2,4-oxadiazol-5-yl)ethyl)-20-fluoro-7-isobutyl-6,9,10-trimethyl-1,5,8,11-tetraoxo-1,2,3,4,5,6,7,8,9,10,11,12,13,14-tetradecahydro-[1]oxa[4,7,10,14]tetraazacycloheptadecino[16,17-f]quinoline-3-carboxamide] | 266 | 352
9 | – | – | CC(C)C[C@H]1C(=O)N(C)[C@H](CC(F)F)C(=O)N[C@H](Cc2ccccc2)COc2ccc3ncc(F)cc3c2C(=O)N[C@H](C(=O)NCCc2noc(C3CC3)n2)CC(=O)N1C [Example 801, (3S,7S,10R,13R)-13-benzyl-N-(2-(5-cyclopropyl-1,2,4-oxadiazol-3-yl)ethyl)-10-(2,2-difluoroethyl)-20-fluoro-7-isobutyl-6,9-dimethyl-1,5,8,11-tetraoxo-1,2,3,4,5,6,7,8,9,10,11,12,13,14-tetradecahydro-[1]oxa[4,7,10,14]tetraazacycloheptadecino[16,17-f]quinoline-3-carboxamide] | 149 | 330
10 | – | – | CC(C)C[C@H]1C(=O)N(C)[C@@H](CC(F)F)C(=O)N[C@H](Cc2ccccc2)COc2ccc3ncc(F)cc3c2C(=O)N[C@H](C(=O)NCCc2noc(C3CC3)n2)CC(=O)N1C [Example 802, (3S,7S,10S,13R)-13-benzyl-N-(2-(5-cyclopropyl-1,2,4-oxadiazol-3-yl)ethyl)-10-(2,2-difluoroethyl)-20-fluoro-7-isobutyl-6,9-dimethyl-1,5,8,11-tetraoxo-1,2,3,4,5,6,7,8,9,10,11,12,13,14-tetradecahydro-[1]oxa[4,7,10,14]tetraazacycloheptadecino[16,17-f]quinoline-3-carboxamide] | 723 | 200
11 | – | – | CC[C@@H]1C(=O)N[C@H](Cc2ccccc2)COc2ccc3ncc(F)cc3c2C(=O)N[C@H](C(=O)NCCc2noc(C3CC3)n2)CC(=O)N(C)[C@@H](CC(C)C)C(=O)N1C [Example 803, (3S,7S,10R,13R)-13-benzyl-N-(2-(5-cyclopropyl-1,2,4-oxadiazol-3-yl)ethyl)-10-ethyl-20-fluoro-7-isobutyl-6,9-dimethyl-1,5,8,11-tetraoxo-1,2,3,4,5,6,7,8,9,10,11,12,13,14-tetradecahydro-[1]oxa[4,7,10,14]tetraazacycloheptadecino[16,17-f]quinoline-3-carboxamide] | 248 | 355
12 | – | – | CC(C)C[C@H]1C(=O)N(C)[C@H](Cc2nc(-c3ccc(F)cn3)no2)C(=O)N[C@H](Cc2ccccc2)COc2ccc3ncc(F)cc3c2C(=O)N[C@H](C(=O)NCCn2nnc(C3CC3)n2)CC(=O)N1C [Example 804, (3S,7S,10R,13R)-13-benzyl-N-(2-(5-cyclopropyl-2H-tetrazol-2-yl)ethyl)-20-fluoro-10-((3-(5-fluoropyridin-2-yl)-1,2,4-oxadiazol-5-yl)methyl)-7-isobutyl-6,9-dimethyl-1,5,8,11-tetraoxo-1,2,3,4,5,6,7,8,9,10,11,12,13,14-tetradecahydro-[1]oxa[4,7,10,14]tetraazacycloheptadecino[16,17-f]quinoline-3-carboxamide] | 115 | 360
13 | – | – | CC(C)C[C@H]1C(=O)N2CCCC[C@@H]2C(=O)N[C@H](Cc2ccccc2)COc2ccc3ncc(F)cc3c2C(=O)N[C@H](C(=O)NCCc2cnn(C3CC3)n2)CC(=O)N1C [Example 805, (9S,13S,19aR,22R)-22-benzyl-N-(2-(2-cyclopropyl-2H-1,2,3-triazol-4-yl)ethyl)-5-fluoro-13-isobutyl-12-methyl-7,11,14,20-tetraoxo-7,8,9,10,11,12,13,14,17,18,19,19a,20,21,22,23-hexadecahydro-16H-pyrido[2′,1′:6,7][1]oxa[4,7,10,14]tetraazacycloheptadecino[16,17-f]quinoline-9-carboxamide] | 191 | 276

Row | Structure (SMILES) | EC50 [1] [nM] | Emax [2] [%] | EC50 [3] [nM] | Emax [4] [%]
14 | CC(C)C[C@H]1C(=O)N2CCCC[C@H]2C(=O)N[C@H](Cc2ccccc2)COc2ccc3ncc(F)cc3c2C(=O)N[C@H](C(=O)NCCc2noc(C3CC3)n2)CC(=O)N1C [Example 793, (9S,13S,19aS,22R)-22-benzyl-N-(2-(5-cyclopropyl-1,2,4-oxadiazol-3-yl)ethyl)-5-fluoro-13-isobutyl-12-methyl-7,11,14,20-tetraoxo-7,8,9,10,11,12,13,14,17,18,19,19a,20,21,22,23-hexadecahydro-16H-pyrido[2′,11:6,7][1]oxa[4,7,10,14]tetraazacycloheptadecino[16,17-f]quinoline-9-carboxamide] | 235 | 105 | – | –
15 | CC(C)C[C@H]1C(=O)N(C)[C@H](Cc2nc(-c3ccc(F)cn3)no2)C(=O)N[C@H](Cc2ccccc2)COc2ccc3ncc(F)cc3c2C(=O)N[C@H](C(=O)NCCc2noc(C3CC3)n2)CC(=O)N1C [Example 794, (3S,7S,10R,13R)-13-benzyl-N-(2-(5-cyclopropyl-1,2,4-oxadiazol-3-yl)ethyl)-20-fluoro-10-((3-(5-fluoropyridin-2-yl)-1,2,4-oxadiazol-5-yl)methyl)-7-isobutyl-6,9-dimethyl-1,5,8,11-tetraoxo-1,2,3,4,5,6,7,8,9,10,11,12,13,14-tetradecahydro-[1]oxa[4,7,10,14]tetraazacycloheptadecino[16,17-f]quinoline-3-carboxamide] | 83 | 354 | – | –
